In patent US11109593B2, “Isoxazolin-5-one derivative and herbicide containing same as active ingredient” (HOKKO CHEMICAL INDUSTRY CO., LTD., priority 2017, dated 2021):

What was measured:
Type in all cases: in vivo
Echinochloa crus-galli [1] = test: Test Example 1: herbicidal effect test by treatment of rice paddy soil (immediately after seeding); settings: 120 g/10a active ingredient, dry weight vs untreated area, 14 days after treatment
Summary of the method: (§1)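 Pre-emergence paddy water application, 120 g a.i./10 ares, applied immediately post-seeding into ~3 cm flood; glasshouse; duplicate pots; dry weight at 14 d → % inhibition = (1 − treated/untreated) × 100.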

Scirpus juncoides [2] = test: as above; settings: 120 g/10a active ingredient, dry weight vs untreated area, 14 days after treatment
Summary of the method: as §1

[3] = tested on: broad leaf weeds (Lindernia pyxidaria and Monochoria vaginalis); test: as above; settings: 120 g/10a active ingredient, dry weight vs untreated area, 14 days after treatment
Summary of the method: as §1

Echinochloa crus-galli [4] = test: Test Example 2: herbicidal effect test by treatment during growing period in paddy rice cultivation (seven days after seeding); settings: 120 g/10a active ingredient, assessed 14 days after treatment, dry weight vs untreated area
Summary of the method: (§2)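 Herbicidal rate = (1 − treated/untreated mean dry weight) × 100, scored 14 days after application, two replicates per rate. Treatment: diluted emulsion dropped onto paddy water seven days after sowing, 120 g active ingredient per 10 ares, in a glass greenhouse.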

Scirpus juncoides [5] = test: as above; settings: 120 g/10a active ingredient, assessed 14 days after treatment, dry weight vs untreated area
Summary of the method: as §2

[6] = tested on: broad leaf weeds (Lindernia pyxidaria and Monochoria vaginalis); test: as above; settings: 120 g/10a active ingredient, assessed 14 days after treatment, dry weight vs untreated area
Summary of the method: as §2

Amaranthus viridis [7] = test: Test Example 3: herbicidal effect test by treatment of dry field farming soil (one day after seeding); settings: 120 g/10a active ingredient, evaluated 14 days after treatment
Summary of the method: (§3)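 Seeds (20 each) mixed into top 1 cm of alluvium in pots, surface pressed. One day later, diluted emulsion sprayed onto soil, 100 L/10 a, 120 g a.i./10 a. Dry weight at 14 d vs untreated gave % herbicidal rate; n=2.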

Chenopodium album [8] = test: as above; settings: 120 g/10a active ingredient, evaluated 14 days after treatment
Summary of the method: as §3

Echinochloa crus-galli [9] = test: as above; settings: 120 g/10a active ingredient, evaluated 14 days after treatment
Summary of the method: as §3

southern crabgrass [10] = test: as above; settings: 120 g/10a active ingredient, evaluated 14 days after treatment
Summary of the method: as §3

Amaranthus viridis [11] = test: Test Example 4: herbicidal effect test by treatment of leave and stem in dry field farming (seven days after seeding); settings: 120 g/10a active ingredient; emulsion sprayed seven days after seeding; evaluated 14 days after treatment
Protocol: (§4) This test was conducted in a double system per one agent solution concentration area, and the herbicidal rates (%) were determined by the following equation (Math. 1) on 14 days after the treatment with the agents. Herbicidal Rate (%)={1-(Average Dry Weight (g) of Plant of Treated Area)/(Average Dry Weight (g) of Plant of Untreated Area)}×100 [Math. 1]
(§5) Herbicidal Effect Test by Treatment of Leave and Stem in Dry Field Farming
(§6) Pots with a size of 36 cm^2 were filled with a dry field farming soil (alluvium). The soil of the top layer of 1 cm and seeds of weeds, namely southern crabgrass, Echinochloa crus-galli, Chenopodium album and Amaranthus viridis, 20 seeds each, were evenly mixed, and the top layer was gently pressed. Emulsions prepared using the compounds in Table 6 below according to Formulation Example 5 were diluted with water seven days after seeding, and the water-diluted agent solutions were sprayed to the soil surfaces at a ratio of 100 liters per 10 ares. The converted amount of the applied active ingredient corresponded to 120 g per 10 ares. The herbicidal effects were evaluated by the same standard as that in Test Example 1 on 14 days after the treatment with the agents. […] The compound numbers in Table 6 are the same as those in Table 1 and Table 2 above.

Chenopodium album [12] = test: as above; settings: 120 g/10a active ingredient; emulsion sprayed seven days after seeding; evaluated 14 days after treatment
Protocol: as §4, §5, §6

Echinochloa crus-galli [13] = test: as above; settings: 120 g/10a active ingredient; emulsion sprayed seven days after seeding; evaluated 14 days after treatment
Protocol: as §4, §5, §6

southern crabgrass [14] = test: as above; settings: 120 g/10a active ingredient; emulsion sprayed seven days after seeding; evaluated 14 days after treatment
Protocol: as §4, §5, §6

SMILES | Herbicidal rate (%) Echinochloa crus-galli (Echinochloa crus-galli [1]) [%] | Herbicidal rate (%) Scirpus juncoides (Scirpus juncoides [2]) [%] | Herbicidal rate (%) Lindernia pyxidaria [3] [%] | Herbicidal rate (%) Monochoria vaginalis [3] [%] | Herbicidal rate (%) Echinochloa crus-galli (Echinochloa crus-galli [4]) [%] | Herbicidal rate (%) Scirpus juncoides (Scirpus juncoides [5]) [%] | Herbicidal rate (%) Lindernia pyxidaria [6] [%] | Herbicidal rate (%) Monochoria vaginalis [6] [%] | herbicidal rate, Amaranthus viridis (Amaranthus viridis [7]) [%] | herbicidal rate, Chenopodium album (Chenopodium album [8]) [%] | herbicidal rate, Echinochloa crus-galli (Echinochloa crus-galli [9]) [%] | herbicidal rate, southern crabgrass (southern crabgrass [10]) [%] | herbicidal effect (herbicidal rate), Amaranthus viridis (Amaranthus viridis [11]) [%] | herbicidal effect (herbicidal rate), Chenopodium album (Chenopodium album [12]) [%] | herbicidal effect (herbicidal rate), Echinochloa crus-galli (Echinochloa crus-galli [13]) [%] | herbicidal effect (herbicidal rate), southern crabgrass (southern crabgrass [14]) [%]
C=CCOC(=O)N(c1ccccc1Cc1c(C)n(CCSC)oc1=O)S(=O)(=O)C(F)(F)F [Compound 1-709] | 90 | 90 | 90 | 90 | 90 | 90 | 90 | 90 | 90 | 90 | 90 | 90 | 40 | 40 | 90 | 90
Cc1c(Cc2ccccc2NS(=O)(=O)C(F)(F)F)c(=O)on1C(C)(C)C [Compound 1-101] | 90 | 90 | 90 | 90 | 90 | 90 | 90 | 90 | 90 | 90 | 90 | 90 | 40 | 40 | 90 | 90
CCC(C)n1oc(=O)c(Cc2ccccc2N(C(=O)OCc2ccccc2)S(=O)(=O)C(F)(F)F)c1C (single isomer, unassigned) [1-783 (TLC bottom)] | 90 | 90 | 90 | 90 | 90 | 90 | 90 | 90 | 90 | 90 | 90 | 90 | 40 | 40 | 90 | 90
Cc1c(Cc2ccccc2NS(=O)(=O)C(F)(F)F)c(=O)on1CCCl [Compound 1-133] | 80 | 100 | 100 | 100 | 60 | 80 | 60 | 80 | – | – | – | – | 0 | 40 | 90 | 40
Cc1c(Cc2cc(F)ccc2N(S(=O)(=O)C(F)(F)F)S(=O)(=O)C(F)(F)F)c(=O)on1Cc1ccccc1 [Compound 1-32] | 80 | 90 | 80 | 90 | 90 | 90 | 80 | 90 | – | – | – | – | 40 | 60 | 0 | 40
Cc1c(Cc2ccccc2N(S(=O)(=O)C(F)(F)F)S(=O)(=O)C(F)(F)F)c(=O)on1CC(C)c1ccccc1 (stereo not drawn) [Compound 1-1046] | 100 | 90 | 70 | 80 | 90 | 90 | 60 | 90 | – | – | – | – | 90 | 0 | 90 | 60
Cc1c(Cc2ccccc2N(S(=O)(=O)C(F)(F)F)S(=O)(=O)C(F)(F)F)c(=O)on1C(C)c1ccccc1 (stereo not drawn) [Compound 1-1030] | 90 | 90 | 100 | 100 | 90 | 90 | 90 | 90 | – | – | – | – | 40 | 40 | 90 | 40
Cc1c(Cc2ccccc2N(S(=O)(=O)C(F)(F)F)S(=O)(=O)C(F)(F)F)c(=O)on1CCCl [Compound 1-983] | 70 | 90 | 90 | 90 | 40 | 80 | 80 | 80 | – | – | – | – | 40 | 0 | 60 | 40
CC(C)Cn1oc(=O)c(Cc2ccccc2NS(=O)(=O)C(F)(F)F)c1C(F)(F)F [Compound 1-81] | 90 | 90 | 80 | 80 | 80 | 90 | 60 | 80 | – | – | – | – | 0 | 0 | 90 | 80
CSCCn1oc(=O)c(Cc2ccccc2N(S(=O)(=O)C(F)(F)F)S(=O)(=O)C(F)(F)F)c1C [Compound 1-1002] | 100 | 100 | 100 | 100 | 90 | 80 | 60 | 80 | – | – | – | – | 50 | 70 | 90 | 60
